Data taken from patent publication US20120270929A1, “MODULATION OF TTC39 EXPRESSION TO INCREASE HDL” (ISIS Pharmaceuticals, Inc., priority 2009, published 2012).
Oligonucleotides are written 5' to 3', each unit as a sugar letter and its base; * is a phosphorothioate linkage, no mark a phosphodiester; rarer units and linkages stand in square brackets, end groups in braces. Plain capitals give the bases only. e = 2'-O-(2-methoxyethyl) (MOE); [5mC] = 5-methylcytosine; d = 2'-deoxy (DNA)

Experiments:
murine TTC39B mRNA [1] = assay: Antisense inhibition of murine TTC39B in mouse primary hepatocytes, single dose; type: cell-based; conditions: 100 nM, cytofectin, ~24 h, vs untreated control; gapmers targeted to SEQ ID NO: 6
Protocol: Antisense oligonucleotides targeted to a TTC39B nucleic acid were tested for their effects on TTC39B mRNA in vitro. Cultured mouse primary hepatocytes at a density of 10,000 cells per well were transfected using cytofectin reagent with 100 nM antisense oligonucleotide. After a treatment period of approximately 24 hours, RNA was isolated from the cells and TTC39B mRNA levels were measured by quantitative real-time PCR. TTC39B mRNA levels were adjusted according to total RNA content, as measured by RIBOGREEN®. Results are presented as percent inhibition of TTC39B, relative to untreated control cells.
The chimeric antisense oligonucleotides in Tables 1 and 2 were designed as 5-10-5 MOE gapmers. The gapmers are 20 nucleotides in length, wherein the central gap segment is comprised of 10 2′-deoxynucleotides and is flanked on both sides (in the 5′ and 3′ directions) by wings comprising 5 nucleotides each. Each nucleotide in the 5′ wing segment and each nucleotide in the 3′ wing segment has a 2′-MOE modification. The internucleoside linkages throughout each gapmer are phosphorothioate (P═S) linkages. All cytosine residues throughout each gapmer are 5-methylcytosines. “Target start site” indicates the 5′-most nucleotide to which the gapmer is targeted. “Target stop site” indicates the 3′-most nucleotide to which the gapmer is targeted. Each gapmer listed in Table 1 is targeted to SEQ ID NO: 6 (GENBANK Accession No. NM_027238.2) and each gapmer listed in Table 2 is targeted to SEQ ID NO: 10 (the complement of GENBANK Accession No. NT—039260.7 truncated at nucleotides 22491001 to 22601000), SEQ ID NO: 11 (GENBANK Accession No. BY244623.1), SEQ ID NO: 12 (GENBANK Accession No. BY260936), SEQ ID NO: 13 (GENBANK Accession No. BM935568.1) or SEQ ID NO: 14 (GENBANK Accession No. BY728780.1).

murine TTC39B mRNA [2] = assay: Dose-dependent antisense inhibition of murine TTC39B in mouse primary hepatocytes (Example 2); type: cell-based; conditions: cytofectin, ~16 h
Protocol: Cells were plated at a density of 10,000 cells per well and transfected using cytofectin reagent with 25 nM, 50 nM, 100 nM, and 200 nM concentrations of antisense oligonucleotide, as specified in Table 3. After a treatment period of approximately 16 hours, RNA was isolated from the cells and TTC39B mRNA levels were measured by quantitative real-time PCR. Murine primer probe set mTtc39b_LTS00287 (forward sequence: […], incorporated herein as SEQ ID NO: 94; reverse sequence: […], incorporated herein as SEQ ID NO: 95; probe sequence: […], incorporated herein as SEQ ID NO: 96) was used to measure mRNA levels. TTC39B mRNA levels were adjusted according to total RNA content, as measured by RIBOGREEN®. Results are presented as percent inhibition of TTC39B, relative to untreated control cells.

Sequence | % inhibition of murine TTC39B mRNA (murine TTC39B mRNA [1]) | percent inhibition of TTC39B mRNA (murine TTC39B mRNA [2]; 25 nM) | percent inhibition of TTC39B mRNA (murine TTC39B mRNA [2]; 50 nM) | percent inhibition of TTC39B mRNA (murine TTC39B mRNA [2]; 100 nM) | percent inhibition of TTC39B mRNA (murine TTC39B mRNA [2]; 200 nM)
TGAATGCTATTATTGGATCT (antisense eT*eG*eA*eA*eT*dG*d[5mC]*dT*dA*dT*dT*dA*dT*dT*dG*eG*eA*eT*e[5mC]*eT) [ISIS 447140] | 66% | 29% | 55% | 77% | 80%
GCTCAGCTTGCAAGGGCCGC (antisense eG*e[5mC]*eT*e[5mC]*eA*dG*d[5mC]*dT*dT*dG*d[5mC]*dA*dA*dG*dG*eG*e[5mC]*e[5mC]*eG*e[5mC]) [ISIS 447127] | 65% | 40% | 62% | 84% | 90%
GGACTGCCTGCCATGGGTGC (antisense eG*eG*eA*e[5mC]*eT*dG*d[5mC]*d[5mC]*dT*dG*d[5mC]*d[5mC]*dA*dT*dG*eG*eG*eT*eG*e[5mC]) [ISIS 447146] | 69% | 44% | 55% | 78% | 89%
GCCAATCTAAAAATGGCTCA (antisense eG*e[5mC]*e[5mC]*eA*eA*dT*d[5mC]*dT*dA*dA*dA*dA*dA*dT*dG*eG*e[5mC]*eT*e[5mC]*eA) [ISIS 447135] | 67% | 35% | 52% | 66% | 76%
GGAGGTCCCCTGGCCACGGC (antisense eG*eG*eA*eG*eG*dT*d[5mC]*d[5mC]*d[5mC]*d[5mC]*dT*dG*dG*d[5mC]*d[5mC]*eA*e[5mC]*eG*eG*e[5mC]) [ISIS 447151] | 65% | 39% | 56% | 76% | 85%
GTTGCCTTGGACCATTTACT (antisense eG*eT*eT*eG*e[5mC]*d[5mC]*dT*dT*dG*dG*dA*d[5mC]*d[5mC]*dA*dT*eT*eT*eA*e[5mC]*eT) [ISIS 447122] | 67% | 35% | 61% | 78% | 88%
GAGTCCACCTTTGATGAAGT (antisense eG*eA*eG*eT*e[5mC]*d[5mC]*dA*d[5mC]*d[5mC]*dT*dT*dT*dG*dA*dT*eG*eA*eA*eG*eT) [ISIS 447110] | 69% | 39% | 52% | 77% | 87%
